Values of other authors, collected in patent US12121499B2, “Pharmaceutical composition comprising the phytocannabinoids cannabidivarin (CBDV) and cannabidiol (CBD)” (priority 2011, dated 2024).
Where two headings read alike, the source gives them in different places.

Assays:
seizures = conditions: 5 institutionalized children not responding to phenobarbital and phenoytin
CB2 receptor = CB2 receptor (Homo sapiens, UniProt P34972); conditions: WO 2007/138322
grand mal seizures = conditions: 200-300 mg cannabidiol plus regular medication
seizure frequency = conditions: 900-1200 mg of cannabidiol a day for 10 months; single patient
[1] = rats; WO 2007/138322
[2] = tested on: seizure frequency in epileptic patients; conditions: 200-300 mg of cannabidiol per day plus standard antiepileptic drugs; 12 epileptic patients
CB1 receptor [3] = biological target: T1, CB1 receptor (Homo sapiens, UniProt P21554); conditions: WO 2007/138322
T1 sequence (P21554 whole entry): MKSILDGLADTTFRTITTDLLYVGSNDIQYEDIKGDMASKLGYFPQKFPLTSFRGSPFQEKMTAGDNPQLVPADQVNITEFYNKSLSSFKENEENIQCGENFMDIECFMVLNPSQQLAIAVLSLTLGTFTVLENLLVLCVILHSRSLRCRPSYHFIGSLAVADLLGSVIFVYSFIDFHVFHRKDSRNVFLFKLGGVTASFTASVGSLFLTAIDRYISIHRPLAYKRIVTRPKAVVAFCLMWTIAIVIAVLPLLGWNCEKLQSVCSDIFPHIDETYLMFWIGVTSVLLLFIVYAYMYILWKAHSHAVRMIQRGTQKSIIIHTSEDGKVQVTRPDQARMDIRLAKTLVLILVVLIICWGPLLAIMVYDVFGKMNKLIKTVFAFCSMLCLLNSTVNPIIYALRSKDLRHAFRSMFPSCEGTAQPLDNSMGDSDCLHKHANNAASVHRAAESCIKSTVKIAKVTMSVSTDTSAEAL

CB1 receptor [4] = biological target: T1, CB1 receptor; conditions: WO 2006/054057; Pertwee (2000)
[5] = rats, doses greater than 200 mg/kg

Chain of CB2 receptor (P34972 whole entry): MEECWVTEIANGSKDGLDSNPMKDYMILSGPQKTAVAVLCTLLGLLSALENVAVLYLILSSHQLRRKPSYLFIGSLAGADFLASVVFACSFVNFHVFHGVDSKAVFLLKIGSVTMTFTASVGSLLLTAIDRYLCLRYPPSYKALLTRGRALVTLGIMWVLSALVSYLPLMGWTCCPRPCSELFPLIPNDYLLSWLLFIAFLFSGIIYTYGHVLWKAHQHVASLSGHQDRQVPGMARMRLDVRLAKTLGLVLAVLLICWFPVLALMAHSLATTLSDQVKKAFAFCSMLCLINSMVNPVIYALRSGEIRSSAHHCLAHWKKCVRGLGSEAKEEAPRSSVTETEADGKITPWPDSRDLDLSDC

SMILES: CCCC(CCC)C(=O)O [valproate]
- motor and other side effects [5]: notable motor and other side effects (including sedation)

SMILES: CCC1(C)CC(=O)NC1=O (stereo not drawn) [ethosuximide]
- motor and other side effects [5]: notable motor and other side effects (including sedation)

SMILES: CCC1(c2ccccc2)C(=O)NC(=O)NC1=O [phenobarbital]
- motor and other side effects (rat models of epilepsy, doses greater than 250 mg/kg): notable motor and other side effects (including sedation)

SMILES: CCCCCc1cc(O)c2c(c1)OC(C)(C)[C@@H]1CCC(C)=C[C@@H]21 [THC, Tetrahydrocannabinol]
- seizure outcome (seizures): One became entirely free of seizures, one became almost completely free of seizures, and the other three did no worse than before

SMILES: C=C(C)[C@@H]1CCC(C)=C[C@H]1c1c(O)cc(CCCCC)cc1O [CBD, Cannabidiol]
- action at the CB2 receptor (CB2 receptor): inverse agonist
- patients who remained unchanged (grand mal seizures): 1
- patients who showed minor improvement (grand mal seizures): 2
- patients who showed partial improvement (grand mal seizures): 2
- unwanted effect (grand mal seizures): mild sedation
- patients who showed complete improvement (grand mal seizures; 16 grand mal patients in study): 3
- seizure frequency (seizure frequency): markedly reduced
- bodyweight [1]: reduced bodyweight
- seizure frequency [2]: no significant improvement
- action at the CB1 receptor (CB1 receptor [3]): inverse agonist

SMILES: CCCc1cc(O)c2c(c1)OC(C)(C)[C@@H]1CCC(C)=C[C@@H]21 [THCV, Tetrahydrocannabivarin]
- action at the CB1 receptor (CB1 receptor [4]): CB1 receptor antagonist
